Tests used:
N2 WT C. elegans = experiment: Longevity assay, wild-type N2 worms; format: in vivo; details: for increase in median lifespan: continuous from Day 1 of adulthood until natural death, versus 16 days; for median lifespan: control 16 days
Method: (§1) C. elegans strains were cultured at 20° C. on standard nematode growth media (NGM) agar plates seeded with Escherichia coli strain NA22. The following strains were used in this work: wild-type C. elegans Bristol strain (N2), sir-2.1(ok434) IV, F19F10.5(ok888) V, and daf-16(mu86). Strains were obtained from the Caenorhabditis Genetics Center (University of Minnesota, St. Paul, Minn.). For generating cultures of 15-day-old (Day 15) adult worms, synchronized late-stage L4s/early young adult worms were transferred to peptone enriched 15 cm plates containing UV-irradiated OP50 E. coli and 0.12 mM 5-fluoro-2′-deoxyuridine (FUDR) to inhibit progeny production[88] with or without drug until harvest.
Nematodes grown on NGM-agar plates containing 0.5% peptone, were harvested, and eggs were isolated by alkaline hypochlorite with 0.5 N NaOH, 1% hypochlorite; 8 min at 23° C. The recovered eggs were rinsed in M9 buffer and placed on fresh agar plates seeded with E. coli strain OP50 and maintained at 20° C. until late-L4/young adult stage. After the late L4/young adult molt, worms were transferred to peptone enriched 15 cm plates containing 0.12 mM FUDR, OP50 E. coli, and varying concentrations of SA. Salicylamine drug plates were made fresh before transfer by spreading SA on top of the agar and plates were allowed to dry. E. coli strain OP50 was exposed to UV radiation for 30 minutes to kill the bacteria before seeding onto the SA-FUDR NGM agar plates. Worms were exposed to SA throughout its life until harvest by transferring worms to fresh SA-FUDR-OP50 NGM plates every other day.
Survival cultures were grown on 60-mm agar plates; after the late-stage L4/young adult molt, approximately 100 adults were transferred onto SA-OP50-seeded NGM plates. Salicylamine drug plates were made fresh before transfer by spreading SA on top of the agar. Plates were allowed to dry before seeding with UV-irradiated OP50 bacteria. Worms were maintained at 20° C. and live worms were counted during transfer to freshly made SA-OP50-NGM agar plates every 2-3 days. Survival was scored as movement upon slight touch with the platinum wire. Worms were maintained until death.

VC199 [sir-2.1(ok434)] = experiment: Longevity assay, non-functional SIR-2.1 mutant; format: in vivo, C. elegans; details: 0 μM SA 16 days, p=0.70
Method: A nematode strain carrying a non-functional SIR-2.1 mutation, VC199 [sir-2.1(ok434)] was treated with the same concentrations of SA as were used in lifespan experiments with WT nematodes. Starting at day 1 of adulthood, SIR-2.1 mutants were grown on SA-coated OP50-seeded NGM plates. SIR-2.1 mutant worms were transferred to freshly made SA-OP50-NGM agar plates every 2 days and survival was assessed using a platinum wire until all worms died; survival was scored as movement upon slight touch with the platinum wire (FIG. 3B). When SA was administered to the VC199 strain, the effect of extending median lifespan that had been observed in the N2 strain was entirely abolished (FIG. 3C; VC199 median lifespan: 16 days, 0 μM SA; 15 days, 50 μM SA; 15 days, 100 μM SA; 15 days, 500 μM SA; p=0.70).
as §1
Nematodes grown on NGM-agar plates containing 0.5% peptone, were harvested, and eggs were isolated by alkaline hypochlorite with 0.5 N NaOH, 1% hypochlorite; 8 min at 23° C. […]
Survival cultures were grown on 60-mm agar plates; after the late-stage L4/young adult molt, approximately 100 adults were transferred onto SA-OP50-seeded NGM plates. […] Worms were maintained at 20° C. and live worms were counted during transfer to freshly made SA-OP50-NGM agar plates every 2-3 days. Survival was scored as movement upon slight touch with the platinum wire. […]

With `NCc1ccccc1O` [SA, salicylamine] the “increase in median lifespan” value (N2 WT C. elegans; 50 μM SA) was 18%, the median lifespan (N2 WT C. elegans; 50 μM SA) was 19 days and the “increase in median lifespan” value (N2 WT C. elegans; 100 μM SA, p<0.05) was 32%. For the same compound, the median lifespan (N2 WT C. elegans; 100 μM SA) was 21 days, the “increase in median lifespan” value (N2 WT C. elegans; 500 μM SA, p<0.01) was 56% and the median lifespan (N2 WT C. elegans; 500 μM SA) was 25 days. The median lifespan (VC199 [sir-2.1(ok434)]; 50 μM SA) was 15 days, the median lifespan (VC199 [sir-2.1(ok434)]; 100 μM SA) was 15 days and the median lifespan (VC199 [sir-2.1(ok434)]; 500 μM SA) was 15 days.

Source: patent US11633370B2, “Use of scavengers of reactive gamma-ketoaldehydes to extend cell lifespan and healthspan” (Vanderbilt University, priority 2016, dated 2023)
